Test results from US9040563B2, “Dual inhibitors of farnesyltransferase and geranylgeranyltransferase I” (H. Lee Moffitt Cancer Center and Research Institute, Inc., priority 2010, dated 2015).
Like-named read-outs stand apart in the source and are kept apart here.

Legend:
[1] = test system: farnesylation of H-Ras; assay: Whole cell inhibition of H-Ras processing (farnesylation), immunoblot, oncogenic H-Ras-transformed NIH3T3 cells; format: cell-based, mouse
Method: (§1) In vitro inhibition assays for FTase and GGTase-I were conducted by measuring the incorporation of [^3H]FPP and [^3H]GGPP into recombinant H-Ras-CVLS and H-Ras-CVLL, respectively, as previously described (Vogt, et al., Protein geranylgeranylation, not farnesylation, is required for the G1 to S phase transition in mouse fibroblasts. Oncogene, 1996, 13, 1991-1999). The in vivo inhibition of farnesylation and geranylgeranylation was determined based on the level of inhibition by synthetic compounds of H-Ras and Rap1A processing, respectively (Sun, et al., Both farnesyltransferase and geranylgeranyltransferase I inhibitors are required for inhibition of oncogenic K-Ras prenylation but each alone is sufficient to suppress human tumor growth in nude mouse xenografts. Oncogene, 1998, 16, 1467-1473). […] The separated proteins were transferred to nitrocellulose and immunoblotted using an anti-Ras antibody (Y13-258) or an anti-Rap1A antibody (SantaCruz Biotechnology, Santa Cruz, Calif.), respectively. Antibody reactions were visualized using either peroxidase-conjugated goat anti-rat IgG or goat anti-rabbit IgG (Jackson ImmunoResearch, West Grove, Pa.) and an enhanced chemiluminescence detection system.
(§2) Briefly, in vitro inhibition assays for hFTase and GGTase-I were carried out by measuring the incorporation of [^3H]FPP and [^3H]GGPP into recombinant H-Ras-CVLS and H-Ras-CVLL, respectively, as described previously (Vogt et al., Protein geranylgeranylation, not farnesylation, is required for G1 to S phase transition in mouse fibroblasts. Oncogene. 1996; 13:1991-1999). Whole cell inhibition of farnesylation and geranylgeranylation were determined based on the level of inhibition by synthetic compounds of H-Ras and Rap1A processing, respectively (Sun, et al., Both farnesyltransferase and geranylgeranyltransferase I inhibitors are required for inhibition of oncogenic K-Ras prenylation but each alone is sufficient to suppress human tumor growth in nude mouse xenografts. Oncogene. 1998; 16:1467-1473).

[2] = test system: geranylgeranylation of Rap1A; assay: Whole cell inhibition of Rap1A processing (geranylgeranylation), immunoblot, oncogenic H-Ras-transformed NIH3T3 cells; format: cell-based, mouse; details: Mus musculus; whole cells, oncogenic H-Ras-transformed NIH3T3; n = 3 unless stated; read-out: Rap1A processing IC50
Method: as §1, §2

IC50 ([1]; Mus musculus, NIH3T3, whole cells, oncogenic H-Ras-transformed NIH3T3, n = 3 unless stated, read-out: H-Ras processing IC50): 88.7 ± 25.8 nM
IC50 ([1]; whole cells, NIH 3T3, values in nM, listed as FGTI-2734, read-out: H-Ras processing IC50 (whole cell)): 89 ± 26 nM
IC50 [2]: 2.7 ± 1.5 µM
Structure (SMILES): Cn1cncc1CN(CCN(CC1CCCCC1)S(=O)(=O)c1ccccn1)c1ccc(C#N)cc1F [21b, N-(2-((4-cyano-2-fluorophenyl)((1-methyl-1H-imidazol-5-yl)methyl)amino)ethyl)-N-(cyclohexylmethyl)pyridine-2-sulfonamide]
